In ChEMBL document CHEMBL4651402, “Screening of ~5500 FDA-approved drugs and clinical candidates for anti-SARS-CoV-2 activity” (2021):

System: SARS-CoV-2
Test: microbe, parasite or virus in culture
Conditions: Severe acute respiratory syndrome coronavirus 2, Vero C1008, 48 h

| SMILES | IC50 [µM] | IC50 (read-out: pIC50 (converted)) [µM] |
| --- | --- | --- |
| CC1=C(O)C(=O)C=C2C1=CC=C1C3(C)CC[C@@]4(C)CC[C@@](C)(C(=O)O)C[C@H]4[C@]3(C)CC[C@@]21C (stereo partly drawn) | > 20 | > 20 |
| C[C@]12CC[C@@H]3c4ccc(O)cc4C[C@@H](CCCCCCCCC[S+]([O-])CCCC(F)(F)C(F)(F)F)[C@H]3[C@@H]1CC[C@@H]2O (stereo partly drawn) [FULVESTRANT] | > 20 | > 20 |
| OC[C@@H]1CCCN2CCCC[C@H]12 [LUPININE] | > 20 | > 20 |
| CC(C)c1ccc2c(c1)CCC1C(C)(C(N)=O)CCCC21C (stereo not drawn) | > 20 | > 20 |
| COc1ccc2[nH]c([S+]([O-])Cc3ncc(C)c(OC)c3C)nc2c1 (stereo not drawn) [OMEPRAZOLE] | > 20 | > 20 |
| CN1C2CCC1CC(O)C2 (stereo not drawn) | > 20 | > 20 |
| Clc1ccc(COC(Cn2ccnc2)c2ccc(Cl)cc2Cl)cc1 (stereo not drawn) [ECONAZOLE] | > 20 | > 20 |
| CC(C)(S)[C@@H](N)C(=O)O [PENICILLAMINE] | > 20 | > 20 |
| COc1cc(C(C)=O)ccc1O [APOCYNIN] | > 20 | > 20 |
| Oc1ccc(Cl)c2cccnc12 [CLOXYQUIN] | > 20 | > 20 |
| CCN(CC)CCCCC(NC(=O)c1ccc([N+](=O)[O-])cc1)c1ccccc1 (stereo not drawn) | > 20 | > 20 |
| NCCS(=O)(=O)O [TAURINE] | > 20 | > 20 |
| CC(=O)c1cnc2ccc(-c3cc(Cl)c(O)c(Cl)c3)nc2c1N[C@H]1CC[C@H](CN(C)C)CC1 | > 20 | > 20 |
| CCC1(c2c[nH]cn2)Cc2ccccc2C1 [ATIPAMEZOLE] | > 20 | > 20 |
| N=C(N)Nc1ccc(C(=O)Oc2ccc3cc(C(=N)N)ccc3c2)cc1 [NAFAMOSTAT] | > 20 | > 20 |
| O=[N+]([O-])c1ccc(O)c([N+](=O)[O-])c1 [2,4-DINITROPHENOL] | > 20 | > 20 |
| NS(=O)(=O)Cc1noc2ccccc12 [ZONISAMIDE] | > 20 | > 20 |
| NS(=O)(=O)c1cc2c(cc1Cl)NC(C(Cl)Cl)NS2(=O)=O (stereo not drawn) [TRICHLORMETHIAZIDE] | > 20 | > 20 |
| COc1ccc2c(c1OC)C(=O)O[C@H]2[C@@H]1c2c(cc3c(c2OC)OCO3)CCN1C | > 20 | > 20 |
| CN1N=C(N)c2cn(C3OC(COP(=O)(O)O)C(O)C3O)c3ncnc1c23 (stereo not drawn) | > 20 | > 20 |
| Cc1nc(NC(=O)N2CCC[C@H]2C(N)=O)sc1-c1ccnc(C(C)(C)C(F)(F)F)c1 [ALPELISIB] | > 20 | > 20 |
| CCC(=O)Nc1c(C)cc(C(=O)N2CCC(N(C)CCc3ccccc3)CC2)cc1C | > 20 | > 20 |
| COC[C@@H](c1ccc(C(F)(F)F)cc1)N1CCN(C2(C)CCN(C(=O)c3c(C)ncnc3C)CC2)C[C@@H]1C [VICRIVIROC] | > 20 | > 20 |
| O=C(CCCN1CCC(C(=O)c2ccc(F)cc2)CC1)c1ccc(F)cc1 [LENPERONE] | > 20 | > 20 |
| Clc1ccc(C2(Cn3cncn3)OCCO2)c(Cl)c1 [AZACONAZOLE] | > 20 | > 20 |
| C[C@H]1N=C(N)O[C@@H]1c1ccccc1 | > 20 | > 20 |
| CSc1ccc(C(=O)/C=C/c2cc(C)c(OC(C)(C)C(=O)O)c(C)c2)cc1 [ELAFIBRANOR] | > 20 | > 20 |

| SMILES | IC50 [µM] | IC50 (read-out: pIC50 (converted)) [µM] |
| --- | --- | --- |
| COc1nccnc1NS(=O)(=O)c1ccc(N)cc1 | > 20 | > 20 |
| CC(C)=CCC1C(=O)N(c2ccccc2)N(c2ccccc2)C1=O [FEPRAZONE] | > 20 | > 20 |
| O=C1CC[C@@]2(O)[C@H]3Cc4ccc(O)c5c4[C@@]2(CCN3CC2CC2)[C@H]1O5 [NALTREXONE] | > 20 | > 20 |
| CCN(Cc1ccncc1)C(=O)C(CO)c1ccccc1 (stereo not drawn) [TROPICAMIDE] | > 20 | > 20 |
| CNCCCC1(c2ccccc2)OC(C)(C)c2ccccc21 (stereo not drawn) [TALOPRAM] | > 20 | > 20 |
| CCC(=O)c1ccc(OCC(O)CN2CCN(c3ccccc3)CC2)cc1 (stereo not drawn) | > 20 | > 20 |
| CCCCNC(=N)NC(=N)N [BUFORMIN] | > 20 | > 20 |
| Cc1cc(/C=C\C#N)cc(C)c1Nc1ccnc(Nc2ccc(C#N)cc2)n1 | > 20 | > 20 |
| CC(=O)C1CCC2C3CC[C@H]4C[C@H](O)CCC4(C)C3C(=O)CC12C (stereo partly drawn) | > 20 | > 20 |
| CCCCN1CCC(CNC(=O)c2c3n(c4ccccc24)CCCO3)CC1 [PIBOSEROD] | > 20 | > 20 |
| O=C(O)c1cc(NC(=O)[C@H](Cc2ccccc2F)NC(=O)c2cc3[nH]cnc3cc2C(=O)NCC2CCCCCC2)cc(C(=O)O)c1 | > 20 | > 20 |
| CC12CCC3C(CCC4=CC(=O)C=CC43C)C1CCC(=O)O2 (stereo not drawn) | > 20 | > 20 |
| Nc1ncc([N+](=O)[O-])s1 | > 20 | > 20 |
| O=C(O)COc1ccc(CCNS(=O)(=O)c2ccccc2)cc1 [SULOTROBAN] | > 20 | > 20 |
| CC1(C)CC(=O)N(CCCCN2CCN(c3ncccn3)CC2)C(=O)C1 [GEPIRONE] | > 20 | > 20 |
| OC[C@H]1O[C@@H](c2ccc(Cl)c(Cc3ccc(O[C@H]4CCOC4)cc3)c2)[C@H](O)[C@@H](O)[C@@H]1O [EMPAGLIFLOZIN] | > 20 | > 20 |
| C[C@@H]([C@@H](O)c1ccc(O)cc1)N1CCC(O)(c2ccccc2)CC1 [TRAXOPRODIL] | > 20 | > 20 |
| CC12CCC(=O)C=C1CCC1C2CCC2(C)C1CC[C@H]2O (stereo partly drawn) | > 20 | > 20 |
| Nc1ccc(N)cc1 | > 20 | > 20 |
| O=C1CC2(CCCC2)CC(=O)N1CCCCN1CCN(c2ncccn2)CC1 [BUSPIRONE] | > 20 | > 20 |
| CC(C)[C@H](N)C(=O)O[C@@H]1C[C@@H](n2ccc(N)nc2=O)O[C@H]1CO [VALTORCITABINE] | > 20 | > 20 |
| C=CCNc1nc(NCC=C)nc(N2CCC(NCC(c3ccc(F)cc3)c3ccc(F)cc3)CC2)n1 | > 20 | > 20 |
| CCC(=O)O [PROPIONIC ACID] | > 20 | > 20 |
| COc1cc(/C=C/C(=O)O)cc(OC)c1OC [SINAPIC ACID METHYL ETHER] | > 20 | > 20 |
| COc1ccc(-c2ccc(=O)n(Cc3ccc(Cl)cc3F)c2)cc1 | > 20 | > 20 |
| CC(C)C[C@H](NC(=O)[C@@H](O)[C@H](N)Cc1ccccc1)C(=O)O [UBENIMEX] | > 20 | > 20 |
| O=c1c(O)c(-c2cc(O)c(O)c(O)c2)oc2cc(O)cc(O)c12 [MYRICETIN] | > 20 | > 20 |

| SMILES | IC50 [µM] | IC50 (read-out: pIC50 (converted)) [µM] |
| --- | --- | --- |
| CC(C)(N)Cc1ccccc1Cl [CLORTERMINE] | > 20 | > 20 |
| CNC(C)CCC=C(C)C (stereo not drawn) [ISOMETHEPTENE] | > 20 | > 20 |
| O=C1C=CC(=O)c2c1ccc1c2ccc2ccccc21 | > 20 | > 20 |
| NC1(c2ccc(-c3nc4ccn5c(=O)[nH]nc5c4cc3-c3ccccc3)cc2)CCC1 [MK-2206] | > 20 | > 20 |
| N[C@@H](CCC(=O)O)C(=O)O [GLUTAMIC ACID] | > 20 | > 20 |
| Cc1cc2c(s1)Nc1ccccc1N=C2N1CCN(C)CC1 [OLANZAPINE] | > 20 | > 20 |
| CCOc1ccc2nccc([C@@H](O)[C@@H]3C[C@@H]4CCN3C[C@@H]4CC)c2c1 [ETHYLHYDROCUPREINE] | > 20 | > 20 |
| C=CC[C@]1(O)CC[C@H]2[C@@H]3CCC4=CCCC[C@@H]4[C@H]3CC[C@@]21C [ALLYLESTRENOL] | > 20 | > 20 |
| CN1Cc2ccccc2[C@@H]2c3cccc4[nH]cc(c34)C[C@H]21 | > 20 | > 20 |
| COc1cc(NCc2ccc3nc(N)nc(N)c3c2C)cc(OC)c1OC [TRIMETREXATE] | > 20 | > 20 |
| Cc1[nH]cnc1C[C@H]1CCc2c(C)c3ccccc3n2C1=O [FABESETRON] | > 20 | > 20 |
| CCCN1CCC(c2cccc(S(C)(=O)=O)c2)CC1 [PRIDOPIDINE] | > 20 | > 20 |
| NCCc1c[nH]cn1 [HISTAMINE] | > 20 | > 20 |
| O=C(N/N=C/c1ccc([N+](=O)[O-])o1)c1ccc(O)cc1 [NIFUROXAZIDE] | > 20 | > 20 |
| CC1CNc2c(cccc2S(=O)(=O)N[C@@H](CCCNC(=N)N)C(=O)N2CC[C@H](C)C[C@@H]2C(=O)O)C1 (stereo partly drawn) | > 20 | > 20 |
| O=c1c(-c2ccc(O)cc2)coc2cc(O)cc(O)c12 [GENISTEIN] | > 20 | > 20 |
| C[C@@H]1NC(=O)CO[C@@H]1c1ccccc1 | > 20 | > 20 |
| CC(=O)c1cc2ccccc2oc1=O [3-ACETYLCOUMARIN] | > 20 | > 20 |
| Oc1ccc(C(O)CNCCCCCCNCC(O)c2ccc(O)c(O)c2)cc1O (stereo not drawn) [HEXOPRENALINE] | > 20 | > 20 |
| COCCc1ccc(OCC(O)CNC(C)C)cc1 (stereo not drawn) [METOPROLOL] | > 20 | > 20 |
| Nc1nc(F)nc2c1ncn2[C@@H]1O[C@H](COP(=O)(O)O)[C@@H](O)[C@@H]1O [FLUDARABINE PHOSPHATE] | > 20 | > 20 |
| O[C@H]1CC[C@H](Nc2ncc3nc(Nc4c(F)cc(F)cc4F)n([C@H]4CCOC4)c3n2)CC1 [TANZISERTIB] | > 20 | > 20 |
| C=CCN1CCc2nc(N)sc2CC1 [TALIPEXOLE] | > 20 | > 20 |
| COCC(=O)Nc1ccc(/N=C(\C)N(C)C)cc1 | > 20 | > 20 |
| CCC(=O)OC1C(OC2C(C)C(OC3CC(C)(OC)C(O)C(C)O3)C(C)C(=O)OC(CC)C(C)(O)C(O)C(C)C(=O)C(C)CC2(C)O)OC(C)CC1N(C)C (stereo not drawn) | > 20 | > 20 |
